Experimental data as given in patent publication US12427151B2, “Compositions and method of treating cancer” (The Regents of the University of California, priority 2017, dated 2025).
In brackets after ≈: the same amount, converted by molar mass.

Assays:
GBS DK23 = experiment: MBC determination; assay type: cell-based, group B Streptococcus; conditions: Streptococcus, 3-log reduction, 24 hour, 37° C., half strength MHB in PBS
Procedure: (§1) To determine MBC, bacteria were cultured in TSB (Staphylococcus), THB (Streptococcus) or Nutrient broth (P. aeruginosa and E. coli) by reaching exponential phase (OD600=0.5-0.8). […] After incubation, the number of viable bacteria was measured by counting CFU after spreading 10-fold serial dilutions of bacteria on suitable agar plates. MBC was determined as a 3-log reduction (99.9%) of viable bacteria after 24 hour incubation.
(§2) Antimicrobial activity of 6-HAP in vitro. To examine the specificity of 6-HAP for various bacteria, minimal bactericidal concentrations (MBCs) were determined according to dose-dependent killing curves at 24 hrs of incubation in vitro (Table 1). 6-HAP killed or suppressed growth of several major skin pathogens including GAS (NZ131), group B Streptococcus (GBS) (DK23), methicillin-sensitive S. aureus (ATCC35556), methicillin-resistant S. aureus (MRSA) strains (USA300 and Sanger252), Pseudomonas aeruginosa (P. aeruginosa) (ATCC14213) in vitro. […] S. epidermidis (ATCC12228) was also resistant to 6-HAP.

E. coli ATCC25922 = experiment: MBC determination; assay type: cell-based; conditions: Escherichia coli, 3-log reduction, 24 hour, 37° C., half strength MHB in PBS
Procedure: as §1, §2

P. aeruginosa ATCC14213 = experiment: MBC determination; assay type: cell-based; conditions: Pseudomonas aeruginosa, 3-log reduction, 24 hour, 37° C., half strength MHB in PBS
Procedure: as §1, §2

S. aureus ATCC35556 = experiment: MBC determination; assay type: cell-based; conditions: Staphylococcus aureus, 3-log reduction, 24 hour, 37° C., half strength MHB in PBS
Procedure: as §1, §2

S. epidermidis ATCC12228 = experiment: MBC determination; assay type: cell-based; conditions: Staphylococcus epidermidis, 3-log reduction, 24 hour, 37° C., half strength MHB in PBS
Procedure: as §1, §2

S. hominis ATCC27844 = experiment: MBC determination; assay type: cell-based; conditions: Staphylococcus hominis, 3-log reduction, 24 hour, 37° C., half strength MHB in PBS
Procedure: as §1, §2

GAS (NZ131) = experiment: Radial diffusion assay against GAS; assay type: cell-based, group A streptococcus; conditions: fraction purified from MO34 conditioned media
From the text: (a) Screening for antimicrobial activity of culture supernatant from 44 strains of S. epidermidis strains isolated from normal human skin by radial diffusion assay against group A streptococcus (GAS). Data represent diameter of growth inhibition zone of conditioned media of each strain. UD=undetectable. (b) Elution profile of the antimicrobial compound purified from culture supernatant of S. epidermidis MO34 by HPLC using a PolyHYDROXYMETHYL. The last step of 5 purification steps is shown. The insert panel represents antimicrobial activity of each fraction on radial diffusion assay against GAS. Green line represents a gradient of H2O in acetonitrile. […] Antimicrobial activity against GAS was determined by radial diffusion assay. […]
S. epidermidis strains from human skin produce non-proteinaceous antibiotic. To screen for commensal skin bacteria producing antimicrobial activity, 44 strains of S. epidermidis from clinical isolates of normal human skin were cultured overnight and the antimicrobial activity produced by each isolate was determined by radial diffusion assay of their conditioned media against GAS (FIG. 1a). […]

GAS = experiment: Stability of antimicrobial activity after heat or protease treatment (radial diffusion assay); assay type: physicochemical, group A streptococcus; conditions: activity against GAS
From the text: (a) Screening for antimicrobial activity of culture supernatant from 44 strains of S. epidermidis strains isolated from normal human skin by radial diffusion assay against group A streptococcus (GAS). Data represent diameter of growth inhibition zone of conditioned media of each strain. UD=undetectable. (b) Elution profile of the antimicrobial compound purified from culture supernatant of S. epidermidis MO34 by HPLC using a PolyHYDROXYMETHYL. The last step of 5 purification steps is shown. The insert panel represents antimicrobial activity of each fraction on radial diffusion assay against GAS. Green line represents a gradient of H2O in acetonitrile. (c-d) Stability of antimicrobial molecules from S. epidermidis producing the strongest antibiotic activity (MO34) against GAS after heat-treatment (100° C. for indicated time) (c) and incubation with proteinase K (2 mg/mL) or papain (2 mg/mL) at 37° C. for 3 hrs, followed by 5-min incubation at 90° C. to inactivate enzyme (d). Antimicrobial activity against GAS was determined by radial diffusion assay.
To characterize the molecule(s) responsible for antimicrobial activity secreted from the MO34 strain, the antimicrobial molecule was purified from the conditioned media based on activity against GAS. A single peak was isolated in the last chromatography of 5 purification steps (FIG. 1b). […]

[1] = Systemic toxicity in mice; assay type: in vivo; conditions: intravenous 20 mg/kg every 48 hrs for 2 weeks
Procedure: C57BL6 mice (8 week female) were intravascularly administrated with 6-HAP (20 mg/kg) or with an equal volume of vehicle (2.5% DMSO in 0.9% NaCl) every 48 hours for 2 weeks (Arrows). To observe toxicity of 6-HAP, mouse weight was determined at indicated time points. Data represent mean±SE of 10 mice.
Effect of systemic administration with 6-HAP on skin infection and melanoma growth in mice. […] Thus, given the apparent lack of toxicity, the effect on deep tissue infection was tested by intravenously injecting the non-toxic dose of 6-HAP (20 mg/kg) into a mouse model of GAS deep skin infection.

`ONc1ncnc2nc[nH]c12` [6-HAP, 6-N-hydroxyaminopurine] gave an MBC (GBS DK23) of 0.781 µg/mL (≈ 5.17 µM), an MBC (E. coli ATCC25922) of 50 µg/mL (≈ 331 µM) and an MBC (P. aeruginosa ATCC14213) of 1.56 µg/mL (≈ 10.3 µM). The MBC (S. aureus ATCC35556) was 6.25 µg/mL (≈ 41.4 µM), the MBC (S. epidermidis ATCC12228) was > 50 µg/mL and the MBC (S. hominis ATCC27844) was 12.5 µg/mL (≈ 82.7 µM). The “zones of inhibition of GAS growth by purified fraction” value (GAS (NZ131)) was “strong zones of inhibition”, the “heat stability of antimicrobial activity” value (GAS; 100° C. for indicated time) was “heat-stable” and the “protease sensitivity of antimicrobial activity” value (GAS; proteinase K (2 mg/mL) or papain (2 mg/mL) at 37° C. for 3 hrs) was “protease-insensitive”. The “toxic effects assessed by visual appearance, behavior or change in weight” value [1] was “no apparent toxic effects”.
